US11578056B2, “Solid forms comprising (S)-2-(2,6-dioxopiperidin-3-yl)-4-((2-fluoro-4-((3-morpholinoazetidin-1-yl)methyl)benzyl)amino)isoindoline-1,3-dione and salts thereof, and compositions comprising and methods of using the same” (Celgene Corporation, priority 2019, dated 2023)
pEC50, pIC50: −log10 of the molar value.

What was measured:
Assay in all cases: Hematological cell line viability/apoptosis flow cytometry assay
Type in all cases: cell-based
BL-41 cell line = conditions: BL-41 (BL), 120 h
Procedure, shortened: (§1)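 Tumor cell lines were exposed for 5 days to compound (0.00015–10 μM) or 0.1% DMSO. Annexin V-negative, DRAQ7-negative cells were counted as viable relative to DMSO, and Annexin V-positive cells as apoptotic; nonlinear variable-slope fits gave IC50 and EC50.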

CII cell line = conditions: CII (CLL), 120 h
Procedure, shortened: as §1

Daudi cell line = conditions: Daudi (BL), 120 h
Procedure, shortened: as §1

EHEB cell line = conditions: EHEB (CLL), 120 h
Procedure, shortened: as §1

MDS-L cell line = conditions: 120 h
Procedure, shortened: as §1

OCI-LY3 cell line = conditions: OCI-LY3 (DLBCL ABC), 120 h
Procedure, shortened: as §1

STR428 cell line = conditions: STR428 (DLBCL), 120 h
Procedure, shortened: as §1

SVSL cell line = conditions: SVSL (MZL, SMZL), 120 h
Procedure, shortened: as §1

Toledo cell line = conditions: Toledo (DLBCL GCB); 120 h
Procedure, shortened: as §1

U-2932 cell line = conditions: U-2932 (DLBCL ABC); 120 h
Procedure, shortened: as §1

U-2973 cell line = conditions: 120 h
Procedure, shortened: as §1

ULA cell line = conditions: ULA (DLBCL), 120 h
Procedure, shortened: as §1

WA-OSEL cell line = conditions: WA-OSEL (CLL), 120 h
Procedure, shortened: as §1

[1] = Homo sapiens, read-out: % Viable Cells IC50

O=C1CC[C@H](N2C(=O)c3cccc(NCc4ccc(CN5CC(N6CCOCC6)C5)cc4F)c3C2=O)C(=O)N1 [Compound 1, (S)-2-(2,6-dioxopiperidin-3-yl)-4-((2-fluoro-4-((3-morpholinoazetidin-1-yl)methyl)benzyl)amino)isoindoline-1,3-dione]
% Viable Cells AUC (BL-41 cell line): 270.2
% Viable Cells Emax (BL-41 cell line): 96.65%
Apoptosis AUC (BL-41 cell line): 288.2
Apoptosis Ymax (BL-41 cell line): 79.5%
pEC50 (BL-41 cell line; Homo sapiens): 5.16
pIC50 (BL-41 cell line; [1]): 5.22
% Viable Cells AUC (CII cell line): 926.1
% Viable Cells Emax (CII cell line): 78.23%
Apoptosis AUC (CII cell line): 238.1
Apoptosis Ymax (CII cell line): 26.11%
pEC50 (CII cell line): 6.84
pIC50 (CII cell line; read-out: % Viable Cells IC50): < 5.00
% Viable Cells AUC (Daudi cell line): 196.4
% Viable Cells Emax (Daudi cell line): 0%
Apoptosis AUC (Daudi cell line): 274
Apoptosis Ymax (Daudi cell line): 84.0%
pEC50 (Daudi cell line; Homo sapiens): 5.63
pIC50 (Daudi cell line; [1]): 9.22
% Viable Cells AUC (EHEB cell line): 319.3
% Viable Cells Emax (EHEB cell line): 28.68%
Apoptosis AUC (EHEB cell line): 65.03
Apoptosis Ymax (EHEB cell line): 8.42%
pEC50 (EHEB cell line): 6.30
pIC50 (EHEB cell line; read-out: % Viable Cells IC50): 7.52
% Viable Cells AUC (MDS-L cell line): 182.6
% Viable Cells Emax (MDS-L cell line): 146.7%
Apoptosis AUC (MDS-L cell line): 425.4
Apoptosis Ymax (MDS-L cell line): 100%
pEC50 (MDS-L cell line): 5.81
pIC50 (MDS-L cell line; read-out: % Viable Cells IC50): 7.29
pIC50 (OCI-LY3 cell line; [1]): < 5.00
% Viable Cells AUC (OCI-LY3 cell line): 965.1
% Viable Cells Emax (OCI-LY3 cell line): 85.63%
Apoptosis AUC (OCI-LY3 cell line): 24.63
Apoptosis Ymax (OCI-LY3 cell line): 4.493%
% Viable Cells AUC (STR428 cell line): 43.48
% Viable Cells Emax (STR428 cell line): 1.227%
Apoptosis AUC (STR428 cell line): 905.9
Apoptosis Ymax (STR428 cell line): 95.17%
pEC50 (STR428 cell line): 6.99
pIC50 (STR428 cell line; read-out: % Viable Cells IC50): 7.02
% Viable Cells AUC (SVSL cell line): 368.4
% Viable Cells Emax (SVSL cell line): 34.07%
Apoptosis AUC (SVSL cell line): 340.2
Apoptosis Ymax (SVSL cell line): 35.5%
pEC50 (SVSL cell line): 8.55
pIC50 (SVSL cell line; read-out: % Viable Cells IC50): 7.02
% Viable Cells AUC (Toledo cell line): 112.3
% Viable Cells Emax (Toledo cell line): 8.56%
Apoptosis AUC (Toledo cell line): 231.4
Apoptosis Ymax (Toledo cell line): 27.5%
% Viable Cells AUC (U-2932 cell line): 163.7
% Viable Cells Emax (U-2932 cell line): 12.8%
Apoptosis AUC (U-2932 cell line): 212.8
Apoptosis Ymax (U-2932 cell line): 25.81%
% Viable Cells AUC (U-2973 cell line): 853.4
% Viable Cells Emax (U-2973 cell line): 19.45%
Apoptosis AUC (U-2973 cell line): 391.9
Apoptosis Ymax (U-2973 cell line): 60.8%
% Viable Cells AUC (ULA cell line): 0.5518
% Viable Cells Emax (ULA cell line): 0.02523%
Apoptosis AUC (ULA cell line): 995.3
Apoptosis Ymax (ULA cell line): 99.76%
pEC50 (ULA cell line): 8.75
pIC50 (ULA cell line; read-out: % Viable Cells IC50): 9.00
% Viable Cells AUC (WA-OSEL cell line): 616.1
% Viable Cells Emax (WA-OSEL cell line): 54.42%
Apoptosis AUC (WA-OSEL cell line): 69.39
Apoptosis Ymax (WA-OSEL cell line): 7.38%
pEC50 (WA-OSEL cell line): 6.95
pIC50 (WA-OSEL cell line; read-out: % Viable Cells IC50): < 5.00
